According to patent US8377989B2, “Room temperature stable non-crystalline aspirin and method for the preparation thereof” (priority 2007, dated 2013):

Experiments:
[1] = 100 K (−173° C.) versus ambient conditions; cited from earlier work
[2] = Flow test: Petri dish with sample placed on edge; assay type: physicochemical; conditions: Example 3; Petri dish on edge for about six weeks
From the text: (§1) Subsequent tests with the protocol of Example 2 were repeated with the order of long and short wavelengths reversed, i.e., short wavelength followed by long wavelength cycled sequenced laser treatment. This protocol also produced up to 90 percent yields of room temperature stable non-crystalline glass aspirin, which remained stable at room temperature for over 23 months. The Petri dish containing such a sample of non-crystalline aspirin was placed on edge for a period of about six weeks.

[3] = Storage stability of the non-crystalline form at room temperature (appearance, PXRD); assay type: physicochemical; conditions: for time the non-crystalline glass form remained stable: room temperature
From the text: Within an hour of the evaporative desolvation process following the laser treatment, the system stabilized with 80 percent or more of the mass of the sample cured to a clear non-crystalline glass rather than a crystalline form.
After the 6 months of storage, the laser treated aspirin was studied by PXRD.
as §1

[4] = 298K; vitrified by melting and cooling or ball-milling; cited from earlier work

With `CC(=O)Oc1ccccc1C(=O)O` [Aspirin Form II] as the molecule, how does the “stability of the polymorphic form” value [1] read?
Its value is “kinetically stable at 100 K (−173° C.), but converts back to Form I at ambient conditions”.

With `CC(=O)Oc1ccccc1C(=O)O` [non-crystalline aspirin, acetylsalicylic acid] as the molecule, how does the “flowing of the sample” value [2] read?
The value was “No flowing of the sample was observed”.

And the “crystallization on further storage” value ([3]; Example 2, additional six months of storage after the first 6 months)?
Its value is “No crystallization has been observed”.

What about the “storage period with no change in appearance of the sample” value ([3]; Example 2, room temperature of about 18° to 22° C., about 30 to 40 percent humidity) of the same molecule?
The value was “over 6 months”.

And the “time remained stable at room temperature” value ([3]; Example 3, short wavelength followed by long wavelength laser treatment)?
The value was “over 23 months”.

And the “time the non-crystalline glass form remained stable” value [3]?
Its value is “stable at room temperature once the solvent had evaporated”.

What about the “time the non-crystalline glass form remained stable” value ([3]; listed as glass aspirin) of the same molecule?
The value was “stable for up to about a year at room temperature”.

And the “time the non-crystalline glass form remained stable” value ([3]; listed as non-crystalline glass form)?
The value was “stable at room temperature for at least up to about a year”.

What about the “time the non-crystalline form remained stable” value ([3]; temperature of about 20° to 30° C.) of the same molecule?
Its value is “stable at a temperature of about 20° to 30 °C for at least about a year”.

Which stability against crystallization [4] does the source give for `CC(=O)Oc1ccccc1C(=O)O` [vitreous aspirin] here?
The stability against crystallization was “did not crystallize for four to five days”.
